# From patent US11633415B2, “Compounds and methods useful for treating or preventing cancers” (priority 2017, dated 2023)
# Like-named read-outs stand apart in the source and are kept apart here.
# Experiments:
# CSNK1A1 = CSNK1A1 (Homo sapiens (Human), UniProt P48729); assay: Kinase enzymatic IC50 (Carna Biosciences mobility shift assay); assay type: biochemical
# Protocol: (§1) Enzymatic assays were performed using a mobility shift assay on the LabChip system. Purified kinase protein was incubated with ATP, substrate, and assay buffer (20 mM Hepes—pH 7.5; 5 mM MgCl2, and 0.01% Triton X-100). The assay reaction was initiated with 5 μM ATP and with each compound present. Compounds were tested at the KM,ATP for the protein target (GST-tagged full-length human CK1α, available from Carna Biosciences, Japan) or over a range of ATP concentrations between 5 μM and 9 μM. […] AC50 values were determined using phosphorylated and unphosphorylated substrates.
# [1] = system: colorectal carcinoma cell line HT29; assay: Cell viability assay, HT29; assay type: cell-based; settings: Homo sapiens, HT-29; HT29, 72 hours from plating (48 hours from compound administration)
# Protocol: Cell viability assays were conducted against colorectal carcinoma cell line HT29. Cells were plated in wells and at 24 hours after plating, compounds were added to determine their effect on cell viability at various dosages. After 48 hours from compound administration, the cell viability was determined and the IC50 values were calculated. […] FIG. 4B illustrates the results of another cell viability measurement and IC50 value for Compound 1 assessed by ATP abundance on HT29 at 5 days.
# [2] = biological target: GST-tagged full-length human CK1α (Homo sapiens (Human), UniProt P48729); assay: Kinase enzymatic assay, mobility shift on LabChip system (AC50); assay type: biochemical; settings: mean AC50; 5 μM ATP; 1 μM Profiler Pro FL-Peptide 16 substrate
# Protocol: as §1
# [3] = Table 1, CSNK1A1 inhibitors, read-out: IC50
# Chain of CSNK1A1 (P48729 whole entry): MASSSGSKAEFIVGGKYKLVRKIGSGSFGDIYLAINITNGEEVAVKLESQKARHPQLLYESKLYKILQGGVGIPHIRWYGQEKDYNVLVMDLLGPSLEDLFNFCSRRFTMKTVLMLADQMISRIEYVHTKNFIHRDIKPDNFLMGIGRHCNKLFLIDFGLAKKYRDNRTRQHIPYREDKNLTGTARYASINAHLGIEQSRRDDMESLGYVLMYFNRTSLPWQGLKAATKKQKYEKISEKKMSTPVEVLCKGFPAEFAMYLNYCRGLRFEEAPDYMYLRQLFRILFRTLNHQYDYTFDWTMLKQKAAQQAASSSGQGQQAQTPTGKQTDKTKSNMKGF
# Chain of GST-tagged full-length human CK1α (P48729 whole entry): as above
smiles,measurement,setting,value
"CCC(CC)COC(=O)C(C#N)c1nc2ccccc2nc1N1CCN(CC)CC1 (stereo not drawn) [compound 3, 2-ethylbutyl 2-cyano-2-(3-(4-ethylpiperazin-1-yl)quinoxalin-2-yl)acetate]",IC50,CSNK1A1; [3],5000 nM
N#C/C(C(=O)OCC1CCCCC1)=C1/Nc2cccc(N)c2N=C1N1CCNCC1,IC50,[1],5460 nM
N#CC(C(=O)OCC1CCCCC1)c1nc2ccccc2nc1N1CCNCC1 (stereo not drawn),AC50,[2],0.02 µM
same,IC50,[1],3780 nM
CC(C)COC(=O)C(C#N)c1nc2ccccc2nc1N1CCC(C(N)=O)CC1 (stereo not drawn),AC50,[2],4.64 µM
CCC(CC)COC(=O)C(C#N)c1nc2ccccc2nc1N1CCN[C@@H](C)C1 (stereo partly drawn),AC50,[2],1.22 µM
N#CC(C(=O)OCC1CCCCCC1)c1nc2ccccc2nc1N1CCNCC1 (stereo not drawn),AC50,[2],0.355 µM
N#C/C(C(=O)OCC1CCCCC1)=C1/Nc2cccc(F)c2N=C1N1CCNCC1,AC50,[2],0.405 µM
N#CC(C(=O)OCc1ccncc1)c1nc2ccccc2nc1N1CCNCC1 (stereo not drawn),AC50,[2],0.468 µM
N#C/C(C(=O)OCC1CCCCC1)=C1/NC=NC=C1N1CCNCC1,AC50,[2],0.467 µM
N#C/C(C(=O)OCC1CCCCC1)=C1/Nc2ccc(F)cc2N=C1N1CCNCC1,AC50,[2],0.065 µM
N#CC(C(=O)OCc1cccnc1)c1nc2ccccc2nc1N1CCNCC1 (stereo not drawn),AC50,[2],0.95 µM
CCC(CC)COC(=O)C(C#N)c1nc2ccccc2nc1N1CCC(CN)CC1 (stereo not drawn) [2-ethylbutyl 2-cyano-2-(3-(4-(aminomethyl)piperidin-1-yl)quinoxalin-2-yl)acetate],IC50,CSNK1A1; [3],1750 nM
CCC(CC)COC(=O)C(C#N)c1nc2ccccc2nc1N1CCN(C)CC1 (stereo not drawn) [2-ethylbutyl 2-cyano-2-(3-(4-(methylpiperazin-1-yl)quinoxalin-2-yl)acetate],IC50,CSNK1A1; [3],399 nM
N#C/C(C(=O)OCC1CCCCC1)=C1/Nc2c(F)cccc2N=C1N1CCNCC1,AC50,[2],1.14 µM
N#C/C(C(=O)OCC1CCCCC1)=C1/Nc2ccccc2C=C1N1CCNCC1,AC50,[2],1.33 µM
N#CC(C(=O)OCc1ccccc1F)c1nc2ccccc2nc1N1CCNCC1 (stereo not drawn) [2-fluorobenzyl 2-cyano-2-(3-(4-(piperazin-1-yl)quinoxalin-2-yl)acetate],IC50,CSNK1A1; [3],1880 nM
CCC(CC)COC(=O)C(C#N)c1nc2ccccc2nc1N1CCN[C@H](C)C1 (stereo partly drawn),AC50,[2],0.333 µM
N#C/C(C(=O)OCC1CCCCC1)=C1\C=C(N2CCNCC2)N=CN1,AC50,[2],3.78 µM
CCC(CC)COC(=O)C(C#N)c1nc2ccccc2nc1N1CCNC(c2ccccc2)C1 (stereo not drawn),AC50,[2],2.22 µM
CCC(CC)COC(=O)C(C#N)c1nc2ccccc2nc1N1CCC(N)CC1 (stereo not drawn) [2-ethylbutyl 2-cyano-2-(3-(4-(amino)piperidin-1-yl)quinoxalin-2-yl)acetate],IC50,CSNK1A1; [3],3320 nM
CCC(CC)COC(=O)C(C#N)c1nc2ccccc2nc1N1CCNC(Cc2ccccc2)C1 (stereo not drawn),AC50,[2],1.27 µM
CN1CCN(c2nc3ccccc3nc2C(C#N)C(=O)OCc2ccc(F)cc2)CC1 (stereo not drawn) [drawing 146],AC50,[2],2.04 µM
CNC1CCN(c2nc3ccccc3nc2C(C#N)C(=O)OCc2ccccc2)CC1 (stereo not drawn) [drawing 147],AC50,[2],3.65 µM
CCC(CC)COC(=O)C(C#N)c1nc2ccccc2nc1N1CCC(N)CC1 (stereo not drawn) [drawing 126],AC50,[2],4.22 µM
N#CC(C(=O)OCc1ccc(F)cc1)c1nc2ccccc2nc1N1CCNCC1 (stereo not drawn) [4-fluorobenzyl 2-cyano-2-(3-(4-(piperazin-1-yl)quinoxalin-2-yl)acetate],IC50,CSNK1A1; [3],1290 nM
N#CC(C(=O)OCc1cccc(F)c1)c1nc2ccccc2nc1N1CCNCC1 (stereo not drawn) [drawing 134],AC50,[2],0.353 µM
N#CC(C(=O)OCc1ccccc1)c1nc2ccccc2nc1N1CCC(N)CC1 (stereo not drawn) [drawing 131],AC50,[2],1.82 µM
N#C/C(C(=O)OCC1CCCCC1)=C1/Nc2ccc(-c3ccccc3)cc2N=C1N1CCNCC1,AC50,[2],0.27 µM
CN1CCN(c2nc3ccccc3nc2C(C#N)C(=O)OCc2ccc(F)cc2)CC1 (stereo not drawn) [4-fluorobenzyl 2-cyano-2-(3-(4-(methylpiperazin-1-yl)quinoxalin-2-yl)acetate],IC50,CSNK1A1; [3],2890 nM
CCC(CC)COC(=O)C(C#N)c1nc2ccccc2nc1N1CCNCC1 (stereo not drawn) [drawing 149],AC50,[2],1.94 µM
N#CC(C(=O)OCc1ccccc1)c1nc2ccccc2nc1N1CCC(N)CC1 (stereo not drawn) [benzyl 2-(3-(4-aminopiperidin-1-yl)quinoxalin-2-yl)-2-cyanoacetate],IC50,CSNK1A1; [3],1890 nM
CCC(CC)COC(=O)C(C#N)c1nc2ccccc2nc1N1CCN(C)CC1 (stereo not drawn) [drawing 142],AC50,[2],1.34 µM
CN1CCN(c2nc3ccccc3nc2C(C#N)C(=O)OCc2ccccc2)CC1 (stereo not drawn),IC50,[1],56800 nM
N#CC(C(=O)OCC1CCCC1)c1nc2ccccc2nc1N1CCNCC1 (stereo not drawn),AC50,[2],0.138 µM
N#CC(C(=O)OCc1cccc(N)c1)c1nc2ccccc2nc1N1CCNCC1 (stereo not drawn) [3-aminobenzyl 2-cyano-2-(3-(4-(piperazin-1-yl)quinoxalin-2-yl)acetate],IC50,CSNK1A1; [3],4130 nM
"CC(C)(C)COC(=O)C(C#N)c1nc2ccccc2nc1N1CCNCC1 (stereo not drawn) [2,2 dimethyl propyl 2-cyano-2-(3-(4-(piperazin-1-yl)quinoxalin-2-yl)acetate]",IC50,CSNK1A1; [3],210 nM
N#CC(C(=O)OCc1ccc2ccccc2c1)c1nc2ccccc2nc1N1CCNCC1 (stereo not drawn),AC50,[2],3.87 µM
CCC(CC)COC(=O)C(C#N)c1nc2ccccc2nc1NC1CCNCC1 (stereo not drawn),AC50,[2],1.33 µM
N#CC(C(=O)NCC1CCCCC1)c1nc2ccccc2nc1N1CCNCC1 (stereo not drawn),AC50,[2],1.76 µM
N#CC(C(=O)OCc1cccc(F)c1)c1nc2ccccc2nc1N1CCNCC1 (stereo not drawn) [3-fluorobenzyl 2-cyano-2-(3-(4-(piperazin-1-yl)quinoxalin-2-yl)acetate],IC50,CSNK1A1; [3],268 nM
CC(C)(C)COC(=O)C(C#N)c1nc2ccccc2nc1N1CCNCC1 (stereo not drawn) [drawing 115],AC50,[2],0.151 µM
N#C/C(C(=O)OCC1CCCCC1)=C1/Nc2ccc([N+](=O)[O-])cc2N=C1N1CCNCC1,AC50,[2],0.158 µM
"Nc1ncnc2c1c(COc1cccc(Cl)c1)nn2C1CCOCC1 [PF4800567, 3-(3-chloro-phenoxymethyl)-1-(tetrahydro-pyran-4-yl)-1H-pyrazolo[3,4-d]pyrimidin-4-ylamine, reference compound]",IC50,CSNK1A1; [3],857 nM
same,IC50,"CSNK1A1; known inhibitors, background text (rounded Table 1 values), read-out: IC50 against CSNK1A1",860 nM
"CN1CCN(c2nc3ccccc3nc2C(C#N)C(=O)OC2CCCCC2)CC1 (stereo not drawn) [compound 4, cyclohexyl 2-cyano-2-(3-(4-methylpiperazin-1-yl)quinoxalin-2-yl)acetate]",IC50,CSNK1A1; [3],3180 nM
"CN1CCN(c2nc3ccccc3nc2C(C#N)C(=O)OCC(C)(C)C)CC1 (stereo not drawn) [2,2 dimethyl propyl 2-cyano-2-(3-(4-(methylpiperazin-1-yl)quinoxalin-2-yl)acetate]",IC50,CSNK1A1; [3],715 nM
CCC(CC)COC(=O)C(C#N)c1nc2ccccc2nc1N1CCNCC1 (stereo not drawn) [2-ethylbutyl 2-cyano-2-(3-(4-(piperazin-1-yl)quinoxalin-2-yl)acetate],IC50,CSNK1A1; [3],94 nM
CCC(CC)COC(=O)C(C#N)c1nc2ccccc2nc1N1CCNC(CO)C1 (stereo not drawn),AC50,[2],0.517 µM
CCC(CC)COC(=O)C(C#N)c1nc2ccccc2nc1N1CCNC(CC)C1 (stereo not drawn),AC50,[2],0.958 µM
CCC(CC)COC(=O)C(C#N)c1nc2ccccc2nc1N1CCNC(C(=O)OC)C1 (stereo not drawn),AC50,[2],3.15 µM
N#C/C(C(=O)NCc1ccccc1)=C1/Nc2ccccc2N=C1N1CCNCC1,AC50,[2],1.92 µM
N#C/C(C(=O)OCC1CCCCC1)=C1/Nc2cc(N)ccc2N=C1N1CCNCC1,IC50,[1],3710 nM
N#CC(C(=O)OCc1ccccc1F)c1nc2ccccc2nc1N1CCNCC1 (stereo not drawn) [drawing 123],AC50,[2],1.51 µM
N#CC(C(=O)OCc1ccc(F)cc1)c1nc2ccccc2nc1N1CCNCC1 (stereo not drawn) [drawing 129],AC50,[2],2.73 µM
CCC(CC)COC(=O)C(C#N)c1nc2ccccc2nc1N1CCNC(=O)C1 (stereo not drawn),AC50,[2],1.74 µM
CCN1CCN(c2nc3ccccc3nc2C(C#N)C(=O)OC2CCCCC2)CC1 (stereo not drawn) [drawing 166],IC50,[1],17400 nM
N#CC(C(=O)OCC1CCCCC1)c1nccnc1N1CCNCC1 (stereo not drawn),AC50,[2],0.304 µM
CCC(CC)COC(=O)C(C#N)c1nc2ccccc2nc1N1CCNC(C(C)C)C1 (stereo not drawn),AC50,[2],1.39 µM
CNC1CCN(c2nc3ccccc3nc2C(C#N)C(=O)OCc2ccccc2)CC1 (stereo not drawn) [benzyl 2-cyano-2-(3-(4-(methylamino)piperidin-1-yl)quinoxalin-2-yl)acetate],IC50,CSNK1A1; [3],4390 nM
CN1CCN(c2nc3ccccc3nc2C(C#N)C(=O)OCC(C)(C)C)CC1 (stereo not drawn) [drawing 117],AC50,[2],0.822 µM
N#C/C(C(=O)CCC1CCCCC1)=C1/Nc2ccccc2N=C1N1CCNCC1,AC50,[2],3.15 µM
CCC(CC)COC(=O)C(C#N)c1nc2ccccc2nc1N1CCNC(C)C1 (stereo not drawn),AC50,[2],0.434 µM
CN1CCN(c2nc3ccccc3nc2C(C#N)C(=O)OCC2CCCCC2)CC1 (stereo not drawn),AC50,[2],0.029 µM
CCC(CC)COC(=O)C(C#N)c1nc2ccccc2nc1N1CCC(CN)CC1 (stereo not drawn) [drawing 124],AC50,[2],2.6 µM
N#CC(C(=O)OCc1cccc(N)c1)c1nc2ccccc2nc1N1CCNCC1 (stereo not drawn) [drawing 141],AC50,[2],3.8 µM
